Experimental data taken from US10160755B2 (Plexxikon Inc., priority 2015, dated 2018).

Assays:
[1] = molecular target: T1, FLT3-D835Y (Homo sapiens, UniProt P36888, D835Y); test: FLT3-D835Y biochemical kinase assay (AlphaScreen)
T1 construct: purchased Invitrogen PV3967
T1 sequence (P36888 27-993 D835Y): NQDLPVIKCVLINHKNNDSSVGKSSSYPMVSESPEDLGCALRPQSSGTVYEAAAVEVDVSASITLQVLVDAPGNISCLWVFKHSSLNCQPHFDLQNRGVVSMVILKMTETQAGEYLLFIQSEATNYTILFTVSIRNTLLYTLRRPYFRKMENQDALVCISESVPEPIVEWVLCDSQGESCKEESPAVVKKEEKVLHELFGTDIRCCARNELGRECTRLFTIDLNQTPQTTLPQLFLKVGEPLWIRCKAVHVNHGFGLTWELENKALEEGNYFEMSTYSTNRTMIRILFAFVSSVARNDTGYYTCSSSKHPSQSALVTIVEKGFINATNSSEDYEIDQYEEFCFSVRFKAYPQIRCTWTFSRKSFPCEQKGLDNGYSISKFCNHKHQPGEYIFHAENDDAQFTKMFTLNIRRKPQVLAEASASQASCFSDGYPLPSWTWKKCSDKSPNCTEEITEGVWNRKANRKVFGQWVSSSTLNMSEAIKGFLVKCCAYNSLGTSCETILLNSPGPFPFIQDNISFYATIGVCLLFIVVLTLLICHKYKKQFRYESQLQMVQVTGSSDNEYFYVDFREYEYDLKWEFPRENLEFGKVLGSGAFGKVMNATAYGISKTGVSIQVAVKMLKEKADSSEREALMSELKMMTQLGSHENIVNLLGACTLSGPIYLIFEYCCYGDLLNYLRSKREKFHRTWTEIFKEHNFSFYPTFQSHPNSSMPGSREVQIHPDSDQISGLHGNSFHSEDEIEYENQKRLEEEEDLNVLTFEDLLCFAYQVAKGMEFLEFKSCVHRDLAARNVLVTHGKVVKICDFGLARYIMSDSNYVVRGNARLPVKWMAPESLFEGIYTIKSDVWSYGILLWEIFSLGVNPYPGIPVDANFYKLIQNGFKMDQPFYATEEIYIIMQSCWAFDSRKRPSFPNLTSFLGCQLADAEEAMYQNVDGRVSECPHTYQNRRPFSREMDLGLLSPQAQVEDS
From the text: (§1) In order to determine the effect of compounds on FLT3 catalytic activity, kinase assays using recombinant enzymes and AlphaScreen® technology have been established. When the kinases are catalytically active, they phosphorylate a biotinylated peptide substrate on tyrosine residues. Using AlphaScreen® technology, the ability of the compounds to affect the catalytic activity of the kinases can be measured quantitatively. The peptide substrate is immobilized by the AlphaScreen® Streptavidin Donor beads and, upon phosphorylation by a tyrosine kinase, can bind to AlphaScreen® Anti-Phosphotyrosine (PY20) Acceptor beads. Upon excitation of these beads with laser light at 680 nm, singlet oxygen is produced. This singlet oxygen is rapidly quenched, unless the AlphaScreen® Anti-Phosphotyrosine (PY20) Acceptor beads are in close proximity, in which case a proximity signal can be measured at 580 nm. In the presence of catalytic activity, there is a very strong proximity signal. Selective kinase inhibitors affect a decrease in this proximity signal through a decrease in tyrosine phosphorylation of the peptide substrate.
(§2) Substrate • Poly (Glu4-Tyr) Peptide, biotin conjugate [Biotin-GG(EEEEY)10EE (SEQ ID NO: 4)] • UBI/Millipore #12-440 • Final concentration=30 nM
(§3) Adenosine Triphosphate (ATP) • Sigma #A-3377 • Final concentration for IC50 determination=10 μM (FLT3-D835Y) or 100 μM (FLT3 or FLT3-ITD) • Detection Reagent • AlphaScreen® Phosphotyrosine (PY20) Assay Kit • Perkin-Elmer #6760601M • Final concentration=10 μg/mL
(§4) Centrifuge 1 minute, shake to mix, and incubate as follows:
(§5) • Mix Streptavidin Donor beads at 6× final concentration in Stop/Detection buffer. • Add 5 μL Streptavidin Donor beads to the reaction plate. Centrifuge 1 minute, shake to mix, and incubate at room temperature for 20 minutes. • Mix Anti-Phosphotyrosine (PY20) Acceptor beads at 6× final concentration in Stop/Detection buffer. • Add 5 μL Anti-Phosphotyrosine (PY20) beads to the reaction plate. • Centrifuge 1 minute, shake to mix, and incubate at room temperature for 60 minutes. • Read plate on Wallac EnVision™ 2103 Multilabel Reader. In Vivo Model System Testing

[2] = molecular target: T2, FLT3-ITD (Homo sapiens, UniProt P36888); test: FLT3-ITD biochemical kinase assay (AlphaScreen)
T2 construct: FLT3-ITD; Invitrogen #PV6190
T2 sequence (P36888 1-993): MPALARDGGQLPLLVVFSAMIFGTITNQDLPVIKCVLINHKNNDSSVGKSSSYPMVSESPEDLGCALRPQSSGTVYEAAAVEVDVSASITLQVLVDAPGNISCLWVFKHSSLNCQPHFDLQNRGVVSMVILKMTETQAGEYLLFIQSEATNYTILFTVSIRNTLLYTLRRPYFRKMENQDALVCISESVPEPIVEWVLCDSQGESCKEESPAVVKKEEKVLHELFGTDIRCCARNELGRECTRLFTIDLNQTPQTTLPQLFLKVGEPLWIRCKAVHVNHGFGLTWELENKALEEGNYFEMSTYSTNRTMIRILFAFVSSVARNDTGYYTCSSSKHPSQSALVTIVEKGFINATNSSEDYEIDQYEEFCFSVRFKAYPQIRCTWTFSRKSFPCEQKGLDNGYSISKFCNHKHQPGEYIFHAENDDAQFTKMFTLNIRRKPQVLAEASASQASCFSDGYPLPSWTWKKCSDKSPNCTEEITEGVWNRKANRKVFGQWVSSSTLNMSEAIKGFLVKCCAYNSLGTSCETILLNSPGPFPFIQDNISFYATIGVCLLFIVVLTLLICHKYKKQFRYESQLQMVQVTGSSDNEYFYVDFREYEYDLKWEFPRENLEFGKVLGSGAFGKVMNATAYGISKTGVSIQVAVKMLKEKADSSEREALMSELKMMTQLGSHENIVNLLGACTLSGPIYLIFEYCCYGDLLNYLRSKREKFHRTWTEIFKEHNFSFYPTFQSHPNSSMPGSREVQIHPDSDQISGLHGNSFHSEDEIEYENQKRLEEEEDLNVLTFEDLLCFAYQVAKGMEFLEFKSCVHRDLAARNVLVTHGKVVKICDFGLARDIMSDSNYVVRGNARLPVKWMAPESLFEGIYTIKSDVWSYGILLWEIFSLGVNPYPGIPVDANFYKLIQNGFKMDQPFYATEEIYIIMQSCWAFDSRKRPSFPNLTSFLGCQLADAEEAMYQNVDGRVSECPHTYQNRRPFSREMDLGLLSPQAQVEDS
From the text: as §1, §2, §3, §4, §5

IC50 [1] [µM]	IC50 [2] [µM]	SMILES
0.0001 to 1	0.0001 to 1	CC(C)(C)n1cnc2ccc(-c3c[nH]c4ncc(-c5cnc(C#N)c(Cl)c5)nc34)cc21 [P-361, 5-[7-(3-tert-butylbenzimidazol-5-yl)-5H-pyrrolo[2,3-b]pyrazin-2-yl]-3-chloro-pyridine-2-carbonitrile]
0.0001 to 1	0.0001 to 1	Cn1cnc2ccc(-c3c[nH]c4ncc(-c5ccc(F)c(C#N)c5)cc34)cc21 [P-141, 2-fluoro-5-[3-(3-methylbenzimidazol-5-yl)-1H-pyrrolo[2,3-b]pyridin-5-yl]benzonitrile]
0.0001 to 1	0.0001 to 1	COc1cnc2[nH]cc(-c3ccc4ncn(Cc5ccc(Cl)cc5)c4c3)c2c1 [P-111, 1-[(4-chlorophenyl)methyl]-6-(5-methoxy-1H-pyrrolo[2,3-b]pyridin-3-yl)benzimidazole]
0.0001 to 1	0.0001 to 1	COc1cc(-c2cnc3[nH]cc(-c4ccc5ncn(C6CCCNC6)c5c4)c3n2)ccn1 (stereo not shown) [P-136, 2-(2-methoxypyridin-4-yl)-7-(1-(piperidin-3-yl)-1H-benzo[d]imidazol-6-yl)-5H-pyrrolo[2,3-b]pyrazine]
0.0001 to 1	0.0001 to 1	Fc1ccc(-n2cnc3ccc(-c4c[nH]c5ncc(-c6cccc(OC(F)(F)F)c6)cc45)cc32)cc1Cl [P-211, 1-(3-chloro-4-fluoro-phenyl)-6-[5-[3-(trifluoromethoxy)phenyl]-1H-pyrrolo[2,3-b]pyridin-3-yl]benzimidazole]
0.0001 to 1	0.0001 to 1	N#Cc1cccc(S(=O)(=O)Nc2cnc3[nH]cc(-c4ccc5ncn(C6CCCNC6)c5c4)c3c2)c1 (stereo not shown) [P-234, 3-cyano-N-[3-[3-(3-piperidyl)benzimidazol-5-yl]-1H-pyrrolo[2,3-b]pyridin-5-yl]benzenesulfonamide]
0.0001 to 1	0.0001 to 1	COc1cc(-c2cnc3[nH]cc(-c4ccc5ncn(C)c5c4)c3n2)cc(OC)n1 [P-157, 2-(2,6-dimethoxy-4-pyridyl)-7-(3-methylbenzimidazol-5-yl)-5H-pyrrolo[2,3-b]pyrazine]
1 to 10	10 to 200	COc1cnc2[nH]cc(-c3ccc4c(c3)ncn4C)c2c1 [P-102, 5-methoxy-3-(1-methylbenzimidazol-5-yl)-1H-pyrrolo[2,3-b]pyridine]
0.0001 to 1	0.0001 to 1	Cn1cnc2ccc(-c3c[nH]c4ncc(-c5cnn(CC(F)(F)F)c5)nc34)cc21 [P-176, 7-(3-methylbenzimidazol-5-yl)-2-[1-(2,2,2-trifluoroethyl)pyrazol-4-yl]-5H-pyrrolo[2,3-b]pyrazine]
0.0001 to 1	0.0001 to 1	COc1cccc(-c2cnc3[nH]cc(-c4ccc5ncsc5c4)c3n2)c1 [P-158, 6-[2-(3-methoxyphenyl)-5H-pyrrolo[2,3-b]pyrazin-7-yl]-1,3-benzothiazole]
0.0001 to 1	0.0001 to 1	COc1cnc2[nH]cc(-c3cnc4ncn(Cc5ccccc5)c4c3)c2c1 [P-143, 1-benzyl-6-(5-methoxy-1H-pyrrolo[2,3-b]pyridin-3-yl)imidazo[4,5-b]pyridine]
0.0001 to 1	0.0001 to 1	CC(=O)Nc1cccc(-c2cnc3[nH]cc(-c4ccc5ncsc5c4)c3n2)c1 [P-159, N-[3-[7-(1,3-benzothiazol-6-yl)-5H-pyrrolo[2,3-b]pyrazin-2-yl]phenyl]acetamide]
0.0001 to 1	0.0001 to 1	COc1cc(-c2cnc3[nH]cc(-c4ccc5ncn(-c6ccc(F)cc6)c5c4)c3n2)ccn1 [P-206, 7-[3-(4-fluorophenyl)benzimidazol-5-yl]-2-(2-methoxy-4-pyridyl)-5H-pyrrolo[2,3-b]pyrazine]
0.0001 to 1	0.0001 to 1	COc1cc(-c2cnc3[nH]cc(-c4ccc5c(c4)N(C(C)C)CCO5)c3n2)ccn1 [P-187, 4-isopropyl-6-[2-(2-methoxy-4-pyridyl)-5H-pyrrolo[2,3-b]pyrazin-7-yl]-2,3-dihydro-1,4-benzoxazine]
0.0001 to 1	0.0001 to 1	COc1cccc(-c2cnc3[nH]cc(-c4ccc5ncn(C)c5c4)c3n2)c1 [P-145, 2-(3-methoxyphenyl)-7-(3-methylbenzimidazol-5-yl)-5H-pyrrolo[2,3-b]pyrazine]
0.0001 to 1	0.0001 to 1	COc1cc(-c2cnc3[nH]cc(-c4ccc5ncn(C)c5c4)c3n2)ccc1Cl [P-149, 2-(4-chloro-3-methoxy-phenyl)-7-(3-methylbenzimidazol-5-yl)-5H-pyrrolo[2,3-b]pyrazine]
0.0001 to 1	0.0001 to 1	CC(C)(C)n1cnc2ccc(-c3c[nH]c4ncc(-c5cccc(OC(F)(F)F)c5)nc34)cc21 [P-191, 7-(3-tert-butylbenzimidazol-5-yl)-2-[3-(trifluoromethoxy)phenyl]-5H-pyrrolo[2,3-b]pyrazine]
0.0001 to 1	0.0001 to 1	CN1CCN(c2ncc(-c3cnc4[nH]cc(-c5ccc6ncn(C(C)(C)C)c6c5)c4n3)cn2)CC1 [P-349, 7-(3-tert-butylbenzimidazol-5-yl)-2-[2-(4-methylpiperazin-1-yl)pyrimidin-5-yl]-5H-pyrrolo[2,3-b]pyrazine]
0.0001 to 1	0.0001 to 1	CC(C)S(=O)(=O)Nc1cccc(-c2cnc3[nH]cc(-c4ccc5ncn(C)c5c4)c3n2)c1 [P-152, N-[3-[7-(3-methylbenzimidazol-5-yl)-5H-pyrrolo[2,3-b]pyrazin-2-yl]phenyl]propane-2-sulfonamide]
0.0001 to 1	0.0001 to 1	CC(C)(C)n1cnc2ccc(-c3c[nH]c4ncc(-c5ccc(S(=O)(=O)N6CCCC6)cc5)nc34)cc21 [P-239, 7-(3-tert-butylbenzimidazol-5-yl)-2-(4-pyrrolidin-1-ylsulfonylphenyl)-5H-pyrrolo[2,3-b]pyrazine]
